Experiment [1] concerns Male Wistar rats. Briefly: Chronic Mild Stress Model of Depression (CMS), sucrose intake.
Excerpt: CMS uses mild stressors, such as food and water deprivation, small temperature changes, changes of cage mates, etc. Over a period of weeks of exposure to the mild stressors, the animals gradually reduce their consumption of a highly preferred sucrose solution which persists (in untreated animals) for several weeks following the cessation of stress.
Male Wistar rats were brought into the laboratory two months before the start of the experiment at which time they weighed aprroximately 300 grams. Except as described below, the animals were singly housed, with food an eater freely available, and maintained on a 12 hour light/dark cycle (lights on at 8 AM) at a temperature of 22±° C.
The animals were first trained to consume a 1% sucrose solution; training consisted of eight 1 hour baseline tests in which sucrose was presented, in the home cage, following 14 hours food and water deprivation; intake was measured by weighing pre-weighed bottles containing the sucrose solution at the end of the test. Subsequently, sucrose consumption was monitored, under similar conditions, at weekly intervals throughout the whole experiment.
On the basis of their sucrose intakes in the final baseline test, the animals were divided into two matched groups. One group of animals was subjected to a chronic mild stress procedure for a period of 9 consecutive weeks. Each week of stress regime consisted of: two periods of food or water deprivation (12 and 14 hour), two periods of 45 degree cage tilt (12 and 14 h), two periods of intermittent overnight illumination (lights on and off every 2 hours), two 14 hour periods of soled cage (200 ml water in sawdust bedding), two 14 hour periods of paired housing, two 14 hour periods of low intensity stroboscopic illumination (150 flashes/min). Stressors were applied continuously throughout the day and night, and scheduled randomly. […] They were deprived of food and water for the 14 hours preceding each sucrose test, but otherwise food and water were freely available in the home cage. […] All drug injections were in a volume of 1 ml/kg body weight. Drugs were administered at 10 AM and sucrose tests were carried out 24 hours following the last drug treatment. After five weeks, the treatments were terminated and after one week of withdrawal a final sucrose test was carried out. Stress was continued throughout the period of treatment and withdrawal.
Results were analyzed by multiple analysis of variance, followed by Fisher's LSD test for post hoc comparisons of means.
Experiment [2] has as its target D2 (dopamine) receptor (Homo sapiens, UniProt P14416). Briefly: affinity for the D2 (dopamine) receptor in in vitro models. It is filed as binding.
Experiment [3] relates to α-1 receptor. In words: affinity for the α-1 receptor in in vitro models. It is filed as binding.
Experiment [4] has as its system cholinergic M1/M2 receptors. In words: affinity for the cholinergic M1/M2 receptors. It is filed as binding. The source says:
It is orally active, non-toxic at therapeutic doses and potent. It is also capable of being sealed-up for commercial synthesis. Additionally, neurochemical studies indicate that there is a serotonin/dopamine interaction following chronic administration of this compound as described in Life Sciences 56(25): 2209-2222 (1995), incorporated herein by reference. The combination of the foregoing characteristics produces a unique compound for treating patients having either Depressive Disorders of Bipolar Disorders.

The target of experiment [5] is D1 (dopamine) receptor (Homo sapiens, UniProt P21728). Briefly: affinity for the D1 (dopamine) receptor in in vitro models. It is filed as binding.
Sequence of D1 (dopamine) receptor (P21728 whole entry): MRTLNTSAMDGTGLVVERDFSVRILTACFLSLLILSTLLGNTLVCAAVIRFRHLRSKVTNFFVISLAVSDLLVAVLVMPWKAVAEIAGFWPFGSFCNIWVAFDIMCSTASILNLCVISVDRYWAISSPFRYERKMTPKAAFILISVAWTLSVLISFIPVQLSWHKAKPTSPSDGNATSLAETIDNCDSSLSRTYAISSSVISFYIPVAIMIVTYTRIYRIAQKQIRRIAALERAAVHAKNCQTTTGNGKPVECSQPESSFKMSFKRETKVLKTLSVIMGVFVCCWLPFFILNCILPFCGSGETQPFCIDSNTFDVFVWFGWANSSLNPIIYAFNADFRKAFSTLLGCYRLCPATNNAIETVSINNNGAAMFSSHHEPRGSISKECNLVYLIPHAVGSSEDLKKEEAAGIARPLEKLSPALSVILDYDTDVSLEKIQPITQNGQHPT

Structures are written as SMILES.

Sequence of D2 (dopamine) receptor (P14416 whole entry): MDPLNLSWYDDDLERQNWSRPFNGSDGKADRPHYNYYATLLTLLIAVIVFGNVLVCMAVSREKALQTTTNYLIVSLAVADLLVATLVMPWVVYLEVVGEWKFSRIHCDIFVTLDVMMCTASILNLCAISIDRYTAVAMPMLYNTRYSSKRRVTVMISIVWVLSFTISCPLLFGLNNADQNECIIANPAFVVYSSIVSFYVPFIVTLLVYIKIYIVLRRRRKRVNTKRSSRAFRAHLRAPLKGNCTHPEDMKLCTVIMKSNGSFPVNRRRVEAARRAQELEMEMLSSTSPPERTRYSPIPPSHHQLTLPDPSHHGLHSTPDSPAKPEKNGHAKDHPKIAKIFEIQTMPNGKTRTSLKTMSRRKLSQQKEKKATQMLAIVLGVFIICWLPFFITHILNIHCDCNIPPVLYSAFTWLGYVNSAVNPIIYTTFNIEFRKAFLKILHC

Take `CN(C)CCCN1c2ccccc2CCc2ccccc21` [Imipramine, reference compound]: in experiment [1] (control (unstressed) rats, 10 mg/kg ip daily, five weeks), the “effect on sucrose intake in control animals” value was “no significant effect”. Moreover, in experiment [1] (stressed rats, 10 mg/kg ip daily), the “weeks of treatment after which sucrose intake was significantly increased from Week 0 scores” value is reported as “four”. Moreover, the “sucrose intake after five weeks of treatment compared with controls” value in experiment [1] (stressed rats, 10 mg/kg ip daily, Week 5) was “no significant differences between drug-treated stressed animals and drug- and saline-treated controls”. Moreover, the “effect on sucrose intake in stressed animals” value in experiment [1] (stressed rats, 10 mg/kg ip daily, five weeks) is given as “gradual increase of sucrose intake”. Besides, in experiment [1] (stressed rats, 10 mg/kg ip, one week after withdrawal), the “sucrose intake one week after withdrawal from the drug” value is “maintained at similar level”.

As to `COc1cccc(C(O)C2CCN(CCc3ccc(F)cc3)CC2)c1OC` (stereo not drawn) [THE COMPOUND, (+)-α-(2,3-dimethoxyphenyl)-1-[2-(4-fluorophenyl)ethyl]-4-piperidinemethanol], in experiment [1] (control (unstressed) rats, 0.002, 0.02 and 0.2 mg/kg orally daily, five weeks), the “effect on sucrose intake in control animals” value is “no significant effect”. Besides, the “sucrose intakes one week after withdrawal from the treatment” value in experiment [1] (control and stressed rats, 0.002, 0.02 and 0.2 mg/kg orally, one week after withdrawal) is recorded as “not significantly changed”. In addition, the “weeks of treatment after which sucrose intake was significantly increased from initial scores (Week 0)” value is recorded as “two” in experiment [1] (stressed rats, 0.02 mg/kg orally daily) and “three” in experiment [1] (stressed rats, 0.2 mg/kg orally daily). For the same molecule, the “amount of sucrose solution drunk at the end of treatment period (Week 5)” value is “comparable to that of vehicle-treated controls and significantly higher than that of vehicle-treated stressed animals” in experiment [1] (stressed rats, 0.02 mg/kg orally daily, Week 5); “comparable to that of vehicle-treated controls and significantly higher than that of vehicle-treated stressed animals” in experiment [1] (stressed rats, 0.2 mg/kg orally daily, Week 5). Also, in experiment [1] (stressed rats, 0.002, 0.02 and 0.2 mg/kg orally daily, five weeks (overall Treatment effect)), the “effect on sucrose intake in stressed animals” value was “gradually reversed the CMS-induced deficit in sucrose intake”. Further, in experiment [1] (stressed rats, lowest dose 0.002 mg/kg orally daily, five weeks), the “effect on sucrose intake throughout the whole treatment period” value is “no significant effect”. In addition, in experiment [2], the “affinity for the D2 (dopamine) receptor” value is listed as “greater than 100 nM”. In experiment [3], the “affinity for the α-1 receptor” value was “greater than 100 nM”. For the same molecule, the “affinity for the cholinergic M1/M2 receptors” value in experiment [4] is given as “little affinity”. In addition, the “affinity for the D1 (dopamine) receptor” value in experiment [5] is “greater than 100 nM”.

The values are drawn from patent publication US6380216B1, “Use of (+)-α-(2,3-dimethoxyphenyl)-1-[2-(4-fluorophenyl) ethyl]-4-piperidinemethanol in treating depressive disorders and bipolar disorders” (Aventis Pharmaceuticals Inc., priority 1996, dated 2002).
